Molecular target: T1, Ha006a (Helicoverpa armigera, UniProt D5G3E0)
T1 sequence (D5G3E0 25-548): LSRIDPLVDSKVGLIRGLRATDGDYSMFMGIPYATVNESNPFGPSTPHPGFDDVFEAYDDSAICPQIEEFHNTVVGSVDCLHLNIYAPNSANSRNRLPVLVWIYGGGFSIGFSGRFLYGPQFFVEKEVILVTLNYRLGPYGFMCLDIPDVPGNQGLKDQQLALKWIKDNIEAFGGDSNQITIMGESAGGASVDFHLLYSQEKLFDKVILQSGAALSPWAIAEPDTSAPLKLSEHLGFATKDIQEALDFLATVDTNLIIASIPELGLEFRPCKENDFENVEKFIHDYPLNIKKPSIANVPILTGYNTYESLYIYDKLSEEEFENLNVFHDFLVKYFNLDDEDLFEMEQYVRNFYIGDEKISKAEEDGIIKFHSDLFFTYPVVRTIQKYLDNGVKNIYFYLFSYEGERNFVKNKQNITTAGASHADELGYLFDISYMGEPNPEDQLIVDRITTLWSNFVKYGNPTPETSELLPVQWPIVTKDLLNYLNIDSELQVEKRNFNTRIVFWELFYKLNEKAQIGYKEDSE
Test: Differential scanning calorimetry of Ha006a-ligand complexes
Type: binding
Details: DSC; for Tm1 (°C) ± SE: first thermal transition, 50 μM protein, non-two-state fit; for Tm2 (°C) ± SE: second thermal transition; for Tm3 (°C) ± SE: third thermal transition

Structure (SMILES)	Tm1 (°C) ± SE	ΔH (molar heat enthalpy) (first transition (Tm1))	ΔHv (van't Hoff enthalpy) (first transition (Tm1))	ΔHv/ΔH (first transition (Tm1))	Tm2 (°C) ± SE	ΔH (molar heat enthalpy) (second transition (Tm2))	ΔHv (van't Hoff enthalpy) (second transition (Tm2))	ΔHv/ΔH (second transition (Tm2))	Tm3 (°C) ± SE	ΔH (molar heat enthalpy) (third transition (Tm3))	ΔHv (van't Hoff enthalpy) (third transition (Tm3))	ΔHv/ΔH (third transition (Tm3))
COc1cc(OC)c2c(=O)cc(-c3ccc(OC)c(OC)c3)oc2c1 [3′,4′,5,7-Tetramethoxyflavone]	Tm1 51.52 ± 0.25 °C	584000 kcal/mol	34000 kcal/mol	0.06	Tm2 79.01 ± 0.98 °C	957000 kcal/mol	35300 kcal/mol	0.04	Tm3 91.76 ± 0.43 °C	358000 kcal/mol	58800 kcal/mol	0.16
O=C(/C=C/C=C/c1ccc2c(c1)OCO2)N1CCCCC1 [Piperine]	Tm1 51.30 ± 0.32 °C	218000 kcal/mol	43300 kcal/mol	0.20	Tm2 65.47 ± 0.33 °C	209000 kcal/mol	40800 kcal/mol	0.20	Tm3 80.80 ± 0.36 °C	44600 kcal/mol	40900 kcal/mol	0.92
CN1CCc2cc3c(cc2C(=O)Cc2ccc4c(c2C1)OCO4)OCO3 [Protopine]	Tm1 49.93 ± 0.55 °C	630000 kcal/mol	43200 kcal/mol	0.07	Tm2 66.76 ± 0.33 °C	1.87e+06 kcal/mol	31500 kcal/mol	0.02	Tm3 86.29 ± 0.67 °C	783000 kcal/mol	40100 kcal/mol	0.05
O=P(Oc1ccccc1)(Oc1ccccc1)Oc1ccccc1 [Triphenyl phosphate, reference compound]	Tm1 51.32 ± 1.70 °C	457000 kcal/mol	35900 kcal/mol	0.08	Tm2 67.66 ± 0.26 °C	1.31e+06 kcal/mol	66800 kcal/mol	0.05	Tm3 78.21 ± 0.44 °C	472000 kcal/mol	89500 kcal/mol	0.19
